Measurements: patent US20050137261A1, “Method for treating inflammatory bowel diseases” (MEIJI DAIRIES CORPORATION, priority 2003, published 2005)

Legend:
Bifidobacterium bifidum = details: taught by WO03/016544; cited from earlier work
[1] = subject of milk intolerance; DHNA or its salts; taught by WO03/016544; cited from earlier work
MAdCAM-1 = test: Immunohistochemical staining (LSAB) of large intestine sections, DSS colitis, anti-MAdCAM-1; format: in vivo, C57/BL6 Mice; details: large intestine frozen sections, DHNA administration group
Protocol: (§1) C57/BL6 Mice (female, 8 weeks old) were employed. They were bred under SPF conditions, and then used in the test.
(§2) 2.5% Dextran sodium sulfate (DSS, MW 50,000) was added to drinking water (distilled water) for mice, and the mice were allowed to drink the resultant water freely for 7 days (induction of colitis). Subsequently, DHNA was administered to the mice in the following manner.
(§3) DHNA was dissolved in dimethyl sulfoxide (DMSO) (0.1 g/0.5 mL). The resultant neat solution, along with ascorbic acid for stabilizing DHNA (1%), was added to drinking water (distilled water) for mice, and the mice were allowed to drink the resultant water freely for 7 days. DHNA concentration was 0.6 mg/kg or 2 mg/kg. Distilled water to which DMSO and ascorbic acid had been added in equal amounts was employed as a control group.
(§4) The large intestine was removed from each mouse, and fixed with periodate-lysine-paraformaldehyde (PLP), whereby frozen slices were prepared. Through use of the thus-obtained frozen sections, immunohistochemical staining using labeled streptavidin-biotin (LSAB) and HE-staining were performed. In the immunohistochemical staining, anti-MAdCAM-1 and anti-β7integrin were used as primary antibodies and biotin-labeled FITC was employed as a secondary antibody.

β7 positive cells = test: Immunohistochemical staining (LSAB) of large intestine sections, DSS colitis, anti-β7integrin; format: in vivo, C57/BL6 Mice; details: large intestine frozen sections, DHNA administration group
Protocol: as §1, §2, §3, §4

[2] = tested on: dextran sodium sulfate (DSS) colitis; test: DSS colitis in mice: survival rate and HE-staining of the large intestine; format: in vivo, C57/BL6 Mice
Protocol: C57/BL6 Mice (female, 8 weeks old) were employed. They were bred under SPF conditions, and then used in the test. 2.5% Dextran sodium sulfate (DSS, MW 50,000) was added to drinking water (distilled water) for mice, and the mice were allowed to drink the resultant water freely for 7 days (induction of colitis). Subsequently, DHNA was administered to the mice in the following manner. DHNA was dissolved in dimethyl sulfoxide (DMSO) (0.1 g/0.5 mL). The resultant neat solution, along with ascorbic acid for stabilizing DHNA (1%), was added to drinking water (distilled water) for mice, and the mice were allowed to drink the resultant water freely for 7 days. DHNA concentration was 0.6 mg/kg or 2 mg/kg. Distilled water to which DMSO and ascorbic acid had been added in equal amounts was employed as a control group. Survival rate was that as determined for the mice on day 10 after starting administration of DHNA. The large intestine was removed from each mouse, and fixed with periodate-lysine-paraformaldehyde (PLP), whereby frozen slices were prepared. Through use of the thus-obtained frozen sections, immunohistochemical staining using labeled streptavidin-biotin (LSAB) and HE-staining were performed. In the immunohistochemical staining, anti-MAdCAM-1 and anti-β7integrin were used as primary antibodies and biotin-labeled FITC was employed as a secondary antibody.

In the case of `O=C(O)c1cc(O)c2ccccc2c1O` [DHNA, 1,4-dihydroxy-2-naphthoic acid], the “Proliferation of Bifidobacterium bifidum” value (Bifidobacterium bifidum) is listed as “stimulating proliferation”, the “Abdominal discomfort after ingestion of milk” value [1] is listed as “mitigate abdominal discomfort” and the “Expression of adhesion molecule MAdCAM-1” value (MAdCAM-1) is listed as “suppressed”. The “β7 positive cells (immunohistochemical staining)” value (β7 positive cells) was “reduced”, the Survival rate ([2]; day 10 after starting the test, DHNA 0.6 mg/kg or 2 mg/kg in drinking water for 7 days after 2.5% DSS for 7 days, versus control group) was “significantly high” and the “HE-staining findings: ulcer and erosion in the epithelium, cellular infiltration, submucosal thickening” value ([2]; large intestine, DHNA administration group versus control group) was “suppression of the above conditions was observed”. The “Development of DSS enteritis” value ([2]; overall conclusion, by suppressing infiltration of activated immunocytes) was “suppress development of DSS enteritis”.
